Measured values published in patent publication US20140005164A1, “WNT PATHWAY ANTAGONISTS” (Siena Biotech S.p.A., priority 2011, published 2014).

test system: DBTRG cells; experiment: Soft agar anchorage independent assay; assay type: cell-based; settings: 504 h; DBTRG colonies scored 3 weeks after plating; range over the listed examples, given with mixed units nM and μM
Experimental: DBTRG cells were seeded into a 24-well format in the presence of […] carrier alone or compound (0.6% DMSO (v/v)). Each well is composed of two agar layers: the bottom layer consists of 0.6% Agar while the top has 0.35% Agar plus cells and compound. Cells (2500 per well) were incubated with […] dilution compound the day of the plating and the colonies were scored 3 weeks later after o/n staining with MTT solution. Imaging and counting of the colonies was done with the GelCount™ instrument (Oxford Optronix, UK). For IC50 determination the data were expressed as % of control, values were calculated using XLFit version 4.2, with a four parameters sigmoid 5 function (XLFit model 205).

Row | IC50 [nM] | SMILES
1 | 32 to 2900 | COc1ccc2c(c1)n(C[C@H]1CC[C@H](C(=O)Nc3ccncc3)CC1)c(=O)n2C [Example 29]
2 | 32 to 2900 | Cn1c(=O)n(C[C@H]2CC[C@H](C(=O)Nc3ccncc3)CC2)c2cc(C(F)(F)F)ccc21 [Example 22]
3 | 32 to 2900 | COCCOc1ccc2c(c1)n(C[C@H]1CC[C@H](c3nnc(-c4cnn(C)c4)o3)CC1)c(=O)n2C [Example 147]
4 | 32 to 2900 | COCCOc1ccc2c(c1)n(C[C@H]1CC[C@H](C(=O)Nc3ccnnc3)CC1)c(=O)n2C [Example 121]

test system: Wnt/β-catenin pathway; experiment: Wnt reporter assay (TCF-Luciferase, Firefly) in DBTRG-05MG cells; assay type: cell-based; settings: Homo sapiens, TCF-Luciferase (Firefly) read out, 24 hours after compound addition, range given with mixed units nM and μM, read-out: IC50 value in the reporter assay
Experimental: Three copies of a 4×TCF responsive elements were cloned into the pcDNA3.1/Zeo(+) vector (Invitrogen) after deletion of the constitutive CMV promoter and the insertion of the Firefly Luciferase from Promega (phFL-TK) to measure the activity of the Wnt/β-catenin pathway. The resulting plasmid was sequenced for quality control.
Cells were grown in 20 μg/ml Zeocin and 20 μg/ml Zeocin plus 30 μg/ml Hygromicin respectively. The cells were plated at a density of 6500 cells/well in poly-D-lysine pre-treated 96 well-plates.
36 hours after plating cells were incubated with 8-points dilutions compound (0.6% DMSO (v/v)). Each compound was tested in triplicate in single plate. Luciferase detection was done with Dual-Luciferase Reporter Assay System (Promega). 24 hours after compound addition, media was removed and 30 μl of 1× lysis buffer was added to each well for 30 minutes. To each well 45 μl of Dual-Glo Luciferase reagent (Promega) were added and after 1 second delay Luciferase was detected for 1 second using Mithras LB940 instrument. After Firefly luciferase quantification 45 μl of Dual Stop & Glo reagent (Promega) were added to each well and […] Renilla was detected using the same parameters described before.
Data were expressed as % of control for Firefly and Renilla luciferase independently; values were calculated using XLFit version 4.2, with a four parameters sigmoid function (XLFit model 205).

Row | SMILES | IC50 [nM]
5 | COc1ccc2c(c1)n(C[C@H]1CC[C@H](C(=O)Nc3ccncc3)CC1)c(=O)n2C [Example 29] | 35 to 23000
6 | Cn1c(=O)n(C[C@H]2CC[C@H](C(=O)Nc3ccncc3)CC2)c2cc(C(F)(F)F)ccc21 [Example 22] | 35 to 23000
7 | COCCOc1ccc2c(c1)n(C[C@H]1CC[C@H](C(=O)Nc3ccnnc3)CC1)c(=O)n2C [Example 121] | 35 to 23000
8 | COc1ccc2c(c1)n(C[C@H]1CC[C@H](c3nnc(-c4ccc(OC)c(F)c4)o3)CC1)c(=O)n2C [Example 112] | 35 to 23000
9 | COc1ccc2c(c1)n(C[C@H]1CC[C@H](C(=O)Nc3ccc(-c4nnco4)cc3)CC1)c(=O)n2C [Example 66] | 35 to 23000
10 | COc1cc2c(cc1F)n(C)c(=O)n2C[C@H]1CC[C@H](C(=O)N2CCOCC2)CC1 [Example 160] | 35 to 23000
11 | COc1ccc2c(c1)n(C[C@H]1CC[C@H](C(=O)Nc3ccncc3F)CC1)c(=O)n2C [Example 38] | 35 to 23000
12 | Cn1c(=O)n(C[C@H]2CC[C@H](C(=O)Nc3ccncc3)CC2)c2cc(Br)ccc21 [Example 111] | 35 to 23000
13 | CN(C)c1ccc2c(n1)n(C[C@H]1CC[C@H](C(=O)Nc3ccncc3)CC1)c(=O)n2C [Example 120] | 35 to 23000
14 | COc1ccc2c(c1)n(C[C@H]1CC[C@H](C(=O)N3CCN(c4ncc(Br)cn4)CC3)CC1)c(=O)n2C [Example 80] | 35 to 23000
15 | COc1ccc2c(c1)n(C[C@H]1CC[C@H](c3noc(-c4cccnc4)n3)CC1)c(=O)n2C [Example 172] | 35 to 23000
16 | Cn1c(=O)n(C[C@H]2CC[C@H](C(=O)N3CCN(c4cnccn4)CC3)CC2)c2cc(C#N)ccc21 [Example 155] | 35 to 23000
17 | COc1ccc2c(c1)n(C[C@H]1CC[C@H](c3nnc(-c4cc(C)nn4C)o3)CC1)c(=O)n2C [Example 149] | 35 to 23000
18 | Cn1c(=O)n(C[C@H]2CC[C@H](C(=O)Nc3ccncc3)CC2)c2cc(OCCCC#N)ccc21 [Example 136] | 35 to 23000
19 | COCCOc1ccc2c(n1)n(C[C@H]1CC[C@H](C(=O)Nc3ccncc3)CC1)c(=O)n2C [Example 150] | 35 to 23000
20 | COc1cc2c(cc1F)n(C)c(=O)n2C[C@H]1CC[C@H](C(=O)Nc2ccncn2)CC1 [Example 159] | 35 to 23000
21 | Cn1cc(C2=CCN(C(=O)[C@H]3CC[C@H](Cn4c(=O)n(C)c5ccc(=O)[nH]c54)CC3)CC2)cn1 [Example 135] | 35 to 23000
22 | COCCOc1ccc2c(c1)n(C[C@H]1CC[C@H](C(=O)N3CC=C(c4cnn(C)c4)CC3)CC1)c(=O)n2C [Example 130] | 35 to 23000
23 | COc1ccc2c(c1)n(C[C@H]1CC[C@H](C(=O)Nc3cccc4oc(C5CC5)nc34)CC1)c(=O)n2C [Example 67] | 35 to 23000
24 | COc1ccc2c(c1)n(C[C@H]1CC[C@H](C(=O)Nc3cccc(C)n3)CC1)c(=O)n2C [Example 34] | 35 to 23000
25 | COc1ccc2c(c1)n(C[C@H]1CC[C@H](C(=O)Nc3ccnc(N4CCOCC4)c3)CC1)c(=O)n2C [Example 50] | 35 to 23000

Row | SMILES | IC50 [nM]
26 | COCCOc1ccc2c(c1)n(C[C@H]1CC[C@H](C(=O)Nc3ccncn3)CC1)c(=O)n2C [Example 122] | 35 to 23000
27 | COc1ccc2c(n1)n(C[C@H]1CC[C@H](C(=O)N3CCN(c4ncccn4)CC3)CC1)c(=O)n2C [Example 26] | 35 to 23000
28 | Cc1cc(NC(=O)[C@H]2CC[C@H](Cn3c(=O)n(C)c4c(Cl)cccc43)CC2)ccn1 [Example 49] | 35 to 23000
29 | Cn1c(=O)n(C[C@H]2CC[C@H](C(=O)N3CCN(c4ncccn4)CC3)CC2)c2c(Cl)cccc21 [Example 21] | 35 to 23000
30 | Cn1c(=O)n(C[C@H]2CC[C@H](C(=O)N3CCN(c4ncccn4)CC3)CC2)c2cc(Cl)ccc21 [Example 47] | 35 to 23000
31 | COc1cc(NC(=O)[C@H]2CC[C@H](Cn3c(=O)n(C)c4c(Cl)cccc43)CC2)ccn1 [Example 58] | 35 to 23000
32 | COc1ccc2c(c1)n(C[C@H]1CC[C@H](c3nnc(-c4ccnnc4)o3)CC1)c(=O)n2C [Example 164] | 35 to 23000
33 | Cn1c(=O)n(C[C@H]2CC[C@H](C(=O)Nc3ccncc3)CC2)c2nc(OCC(F)(F)F)ccc21 [Example 171] | 35 to 23000
34 | COCCNc1ccc2c(n1)n(C[C@H]1CC[C@H](C(=O)Nc3ccncc3)CC1)c(=O)n2C [Example 125] | 35 to 23000
35 | COc1ccc2c(c1)n(C[C@H]1CC[C@H](C(=O)N3CCC(F)(F)CC3)CC1)c(=O)n2C [Example 35] | 35 to 23000
36 | COc1cc(NC(=O)[C@H]2CC[C@H](Cn3c(=O)n(C)c4ccc(Cl)cc43)CC2)ccn1 [Example 52] | 35 to 23000
37 | COc1ccc2c(c1)n(C[C@H]1CC[C@H](C(=O)N3CCC(c4cnccn4)CC3)CC1)c(=O)n2C [Example 83] | 35 to 23000
38 | Cn1c(=O)n(C[C@H]2CC[C@H](C(=O)Nc3ccncc3)CC2)c2cc(OC(F)F)ccc21 [Example 165] | 35 to 23000
39 | COc1ccc2c(c1)n(C[C@H]1CC[C@H](C(=O)N3CCN(c4nccc(OC)n4)CC3)CC1)c(=O)n2C [Example 51] | 35 to 23000
40 | COCCOCCOc1ccc2c(c1)n(C[C@H]1CC[C@H](C(=O)Nc3ccncc3)CC1)c(=O)n2C [Example 129] | 35 to 23000
41 | CONC(=O)C1CCN(C(=O)[C@H]2CC[C@H](Cn3c(=O)n(C)c4ccc(OC)cc43)CC2)CC1 [Example 85] | 35 to 23000
42 | COCCOc1ccc2c(n1)n(C[C@H]1CC[C@H](c3nnc(-c4cccnc4)o3)CC1)c(=O)n2C [Example 181] | 35 to 23000
43 | COc1ccc2c(c1)n(C[C@H]1CC[C@H](C(=O)N3CCN(c4ccc(F)nc4)CC3)CC1)c(=O)n2C [Example 89] | 35 to 23000
44 | Cn1c(=O)n(C[C@H]2CC[C@H](C(=O)Nc3ccncc3)CC2)c2cc(C3CC3)ccc21 [Example 69] | 35 to 23000
45 | COc1ccc2c(c1)n(C[C@H]1CC[C@H](C(=O)Nc3ccc(OC)nc3)CC1)c(=O)n2C [Example 31] | 35 to 23000

Continued, values first:

Row | IC50 [nM] | SMILES
46 | 35 to 23000 | COCCOc1ccc2c(c1)n(C[C@H]1CC[C@H](c3nnc(-c4cnn(C)c4)o3)CC1)c(=O)n2C [Example 147]
47 | 35 to 23000 | COCCOc1ccc2c(n1)n(C[C@H]1CC[C@H](C(=O)N3CCN(c4cnn(C)c4)CC3)CC1)c(=O)n2C [Example 174]
48 | 35 to 23000 | COc1ccc2c(c1)n(C[C@H]1CC[C@H](C(=O)Nc3nc4ccccc4s3)CC1)c(=O)n2C [Example 187]
49 | 35 to 23000 | COc1ccc2c(c1)n(C[C@H]1CC[C@H](C(=O)N3CCN(c4ccc(C#N)nc4)CC3)CC1)c(=O)n2C [Example 88]
50 | 35 to 23000 | Cn1c(=O)n(C[C@H]2CC[C@H](C(=O)Nc3ccncc3)CC2)c2nc(OCC#N)ccc21 [Example 167]
51 | 35 to 23000 | COc1cc2c(cc1F)n(C)c(=O)n2C[C@H]1CC[C@H](C(=O)N2CCN(c3cnn(C)c3)CC2)CC1 [Example 183]
52 | 35 to 23000 | Cn1c(=O)n(C[C@H]2CC[C@H](C(=O)Nc3ccncc3)CC2)c2nc(NCc3ccco3)ccc21 [Example 127]
53 | 35 to 23000 | COc1ccc2c(c1)n(C[C@H]1CC[C@H](C(=O)N3CCN(c4cccc(OC)n4)CC3)CC1)c(=O)n2C [Example 65]
54 | 35 to 23000 | COc1ccc2c(c1)n(C[C@H]1CC[C@H](c3nnc(-c4ccncc4F)o3)CC1)c(=O)n2C [Example 109]
55 | 35 to 23000 | COc1ccc2c(c1)n(C[C@H]1CC[C@H](c3nnc(-c4c(C)nn(C)c4C)o3)CC1)c(=O)n2C [Example 148]
56 | 35 to 23000 | Cc1cc(NC(=O)[C@H]2CC[C@H](Cn3c(=O)n(C)c4ccc(Cl)cc43)CC2)ccn1 [Example 39]
57 | 35 to 23000 | COc1ccc2c(c1)n(C[C@H]1CC[C@H](c3nnc(-c4ccncc4)o3)CC1)c(=O)n2C [Example 97]
58 | 35 to 23000 | COc1ccc2c(c1)n(C[C@H]1CC[C@H](c3nnc(-c4cn(C)nc4C(F)(F)F)o3)CC1)c(=O)n2C [Example 11, 5-Methoxy-1-methyl-3-{trans 4-[5-(1-methyl-3-trifluoromethyl-1H-pyrazol-4-yl)-[1,3,4]oxadiazol-2-yl]-cyclohexylmethyl}-1,3-dihydro-benzoimidazol-2-one]
59 | 35 to 23000 | COc1ccc2c(c1)n(C[C@H]1CC[C@H](c3nnc(-c4cccc(OC(F)F)c4)o3)CC1)c(=O)n2C [Example 118]
60 | 35 to 23000 | COc1ccc2c(c1)n(C[C@H]1CC[C@H](C(=O)N3[C@H](C)CCC[C@@H]3C)CC1)c(=O)n2C [Example 59]
61 | 35 to 23000 | COc1cc2c(cc1F)n(C)c(=O)n2C[C@H]1CC[C@H](C(=O)N2CCN(c3ncccn3)CC2)CC1 [Example 178]
62 | 35 to 23000 | Cn1c(=O)n(C[C@H]2CC[C@H](C(=O)N3CCN(c4ccncc4)CC3)CC2)c2cc(C#N)ccc21 [Example 123]
63 | 35 to 23000 | COc1cc2c(cc1F)n(C)c(=O)n2C[C@H]1CC[C@H](C(=O)N2CC=C(c3cnn(C)c3)CC2)CC1 [Example 143]
